Columns and labels:
turkey poults = test: Pen trial of probiotic blends alone and with prebiotics: body weight, uniformity, feed conversion; type: in vivo
Procedure: Pen trial experiments were performed using the 4-strain probiotic blend and 10-strain (3 week) probiotic blend described in Example 2. The effect of each combination was assessed alone and in combination with one of two prebiotics, Lactose 1% in feed or 0.5 lbs SAFMANNAN per ton of feed (Phileo Lesaffre Animal Care, Marcq-En-Baroeul Cedex, France). The prebiotic was administered continuously in feed.
This Experiment started in December 2017 and lasted 15 weeks. Poults were housed in pens through 6 weeks of age then moved to a common area. They remained on experimental feed through 6 weeks; then were all given control feed. Probiotic inoculations were performed at day of hatch and 3 weeks of age.

day-of-hatch turkeys = test: Second caged trial: 4-strain combination vs FM-B11 and BMD, body weight; type: in vivo, turkey
Description: FIG. 5A and FIG. 5B show average body weights in grams (y-axis) for day-of-hatch turkeys treated with a 4-strain probiotic blend inoculation group, day-of-hatch turkeys treated with an existing commercial probiotic derived from chickens (FM-B11), and day-of-hatch turkeys treated with a low-dose antibiotic (bacitracin methylene disalicylate or BMD), as described in Example 2, compared to day-of-hatch turkeys treated with a saline negative control. FIG. 5A. Turkeys were weighed on day 0 (that is, day-of-hatch), day 3, day 6, and day 13. Error bars depict standard error of means. […] For each treatment group, eight replicate cages were used with 10 birds per cage (n=80 per treatment group).
A second trial was performed to repeat the 4-strain combination inoculation and compare it again with a negative saline control, an existing commercial probiotic derived from chickens (FM-B11), and a low-dose antibiotic (bacitracin methylene disalicylate or BMD) administered continuously at 50 g/ton in the feed. […] Results are shown in FIG. 5 and Table 5 and indicate that there is repeatability in the ability of this 4-strain combination to enhance turkey performance related to weight gain.

Compound | Feed conversion ratio 0-2 weeks (turkey poults; 0-2 weeks of age) | Feed conversion ratio 0-6 weeks (turkey poults; 0-6 weeks of age) | Total body weight average Day 0 (turkey poults; Day 0 (baseline), pen trial) [grams] | Total body weight average Week 1 (turkey poults; Week 1, pen trial, probiotic at day of hatch and 3 weeks, prebiotic continuously in feed) [grams] | Total body weight average Week 2 (turkey poults; Week 2, pen trial) [grams] | Total body weight average Week 3 (turkey poults; Week 3, pen trial) [grams] | Coefficient of variation as a measure of bird uniformity Week 3 (turkey poults; Week 3 of age) | Total body weight average Week 6 (turkey poults; Week 6, pen trial) [grams] | Coefficient of variation as a measure of bird uniformity Week 6 (turkey poults; Week 6 of age) | Average body weight Day 3 (day-of-hatch turkeys; day 3) [g] | Average body weight Day 6 (day-of-hatch turkeys; day 6) [g] | Average body weight Day 13 (day-of-hatch turkeys; day 13) [g] | Average body weight Day 0 (day-of-hatch turkeys; day-of-hatch (baseline)) [g]
OC[C@H]1O[C@@H](O[C@H]2[C@H](O)[C@@H](O)C(O)O[C@@H]2CO)[C@H](O)[C@@H](O)[C@H]1O (stereo partly shown) [Lactose 1%, Lactose] | 1.40 | 1.71 | 65.0 | 169.9 | 350.7 | 704.0 | 10.304 | 2471.0 | 9.3181 | – | – | – | –
bacitracin methylene disalicylate [BMD Antibiotic] | – | – | – | – | – | – | – | – | – | 76.8 | 125.5 | 314.3 | 60.1

Source: US20200236969A1, “METHODS AND COMPOSITIONS FOR IMPROVING GROWTH AND PERFORMANCE” (priority 2017, published 2020)
